Measurements: patent US20100105773A1, “USE OF RESOLVINS AND DOCOSATRIENES AND ANALOGUES THEREOF FOR THE TREATMENT OF ANGIOGENESIS AND OCULAR NEOVASCULARIZATION” (THE CHILDREN'S MEDICAL CENTER CORPORATION, priority 2006, published 2010)
“Also recorded” adds a separate entry of the source.

What was measured:
[1] = test system: oxygen-induced retinopathy (retinal vasculature); assay: O2-induced retinopathy: vaso-obliteration and neovascularization at P17; assay type: in vivo, mouse; details: for decrease in neovascularization (Tufts) compared to vehicle / decrease in vessel loss (VO) compared to vehicle control: 10 ng i.p. daily P6-P17, read at P17; for neovascularization at P17 compared to saline controls / protection from vaso-obliteration compared to saline-injected controls: 10 ng/day i.p. P6-P17
Description: (§1) O2-induced retinopathy (vessel degeneration, re-growth and pathological neovascularization). To induce vessel loss, postnatal day 7 (P7) mice with their nursing mother were exposed to 75% oxygen for times ranging from 24 hours to 5 days^1. To evaluate vaso-obliteration following 24 hours of oxygen exposure, P8 mice were anesthetized at with Avertin (Sigma) and perfused with 50 μl of 120 mg/ml FITC-dextran (2×10^6 molecular weight, FD2000S-5G, Sigma) in saline through the left ventricle^21. Eyes were enucleated and fixed in 4% paraformaldehyde for 2 h at 4° C. Retinas were isolated and whole-mounted with SlowFade Antifade reagent (S2828, Molecular Probes) onto polylysin-coated slides with the photoreceptor side up. Retinas were examined with a fluorescence microscope (Olympus, Tokyo), digitized images using a three-charge-coupled device color video camera (DX-950P, Sony), and processed with NORTHERN ECLIPSE software (Empix Imaging, Toronto). Retinal neovascularization was evaluated 5 days after oxygen exposure (P7-P12) at P17 when the neovascular response is greatest. P17 mice were given a lethal dose of Avertin (Sigma) and their eyes were enucleated and fixed in 4% paraformaldehyde for 2 h at 4° C. Retinas were isolated and stained overnight with fluoresceinated Griffonia Bandereiraea Simplicifolia Isolectin B4 (Alexa Fluor 488-121411 or Alexa Fluor 594-121413, Molecular Probes) in 1 mM CaCl2 in PBS. Following 2 hours of washes, retinas were whole-mounted with glycerol-gelatin (Sigma) onto polylysin-coated slides with the photoreceptor side up and imaged with a confocal microscope.
Quantification of vaso-obliteration and retinal neovascularization. Images of each of 4 quadrants of whole-mounted retina were taken at 5× magnification and imported into Adobe Photoshop. Retinal segments were merged to produce an image of the entire retina. Vaso-obliteration and neovascular tuft formation were quantified by comparing the number of pixels in the affected areas with the total number of pixels in the retina. Percentages of vaso-obliteration and neovascularization from mouse retinas were compared with values for retinas from age-matched control mice with identical oxygen conditions^17,22. Evaluation was done blind to the identity of the sample.
Resolvins and Neuroprotectins. C57B1/6 nursing mothers were fed a diet rich in either omega-6 or omega-3 polyunsaturated fatty acids from birth. To induce proliferative retinopathy in the pups, mice were exposed to 75% oxygen from P7 to P12. Retinas collected at P17 from omega-6 or omega-3 polyunsaturated fatty acid fed dams and exposed to high oxygen or room air conditions were analyzed to determine lipid mediator profiles. Polyunsaturated fatty acid derived products were extracted, identified, and quantified using a deuterium-labeled internal standard and MS-MS based mediator informatics^23. Results were obtained from retinas of six mice, each from a separate litter. Treatments with synthetic RvD1 (7S,8R,17S-trihydroxy-docosa-4Z,9E,11E,13Z,15E,19Z-hexaenoic acid), RvE1 (5S,12R,18R-trihydroxy-6Z,8E,10E,14Z,16E-eicosapentaenoic acid) and Neuroprotectin-D1 (10R,17S dihydroxy-docosa-4Z,7Z,11E,13E,15Z,19z-hexaneoic acid) were performed in 4 litters of mice. RvD1, RvE1 and NPD1 were prepared by organic synthesis according to published procedures matching physical and biological criteria^14,24,25. The pups were injected i.p. daily from P6-P17 (before, during, and after exposure to 75% oxygen) with 10 ng of either RvD1 (n=14), RvE1 (n=10) or NPD1 (n=14) or Saline/EtOH (n=14) vehicle. Following retinal staining and whole-mounting, neovascularization and vaso-obliteration were quantified at P17. Vaso-obliteration was also assessed at P8 (after 24 hours of 75% oxygen exposure) in pups given 10 ng of RvD1 (n=7), RvE1 (n=9), NPD1 (n=7), or saline/EtOH vehicle injections (n=6) i.p. from P5-P8. Vaso-obliteration was quantified on retinal whole-mounts following FITC-dextran intracardiac perfusion and fixation as above. […]

[2] = test system: oxygen-induced vessel loss (retinal vasculature); assay: Oxygen-induced vessel loss (vaso-obliteration) at P8 after 24 hours of 75% oxygen; assay type: in vivo, mouse; details: 10 ng i.p. P5-P8, 24 hours of 75% oxygen
Description: as §1, with “P17 mice were given a lethal dose of Avertin (Sigma) and their eyes were enucleated and fixed in 4% paraformaldehyde for 2 h at 4° C. Retinas were isolated and stained overnight with fluoresceinated Griffonia Bandereiraea Simplicifolia Isolectin B4 (Alexa Fluor 488-121411 or Alexa Fluor 594-121413, Molecular Probes) in 1 mM CaCl2 in PBS. Following 2 hours of washes, retinas were whole-mounted with glycerol-gelatin (Sigma) onto polylysin-coated slides with the photoreceptor side up and imaged with a confocal microscope.” left out
Quantification of vaso-obliteration and retinal neovascularization. […] Vaso-obliteration and neovascular tuft formation were quantified by comparing the number of pixels in the affected areas with the total number of pixels in the retina. […]
Resolvins and Neuroprotectins. […] Retinas collected at P17 from omega-6 or omega-3 polyunsaturated fatty acid fed dams and exposed to high oxygen or room air conditions were analyzed to determine lipid mediator profiles. Polyunsaturated fatty acid derived products were extracted, identified, and quantified using a deuterium-labeled internal standard and MS-MS based mediator informatics^23. […] Following retinal staining and whole-mounting, neovascularization and vaso-obliteration were quantified at P17. Vaso-obliteration was also assessed at P8 (after 24 hours of 75% oxygen exposure) in pups given 10 ng of RvD1 (n=7), RvE1 (n=9), NPD1 (n=7), or saline/EtOH vehicle injections (n=6) i.p. from P5-P8. […]

TNF-α = details: literature refs 14-16; cited from earlier work
[3] = test system: oxygen-induced retinopathy (retinal vasculature); assay: O2-induced retinopathy: vaso-obliteration and neovascularization at P17; assay type: in vivo, mouse
[4] = i.p. injection, 500 μg/mouse at P7, P12, P14, P16, omega-6 PUFA fed mice
[5] = intraocular (intravitreous) injection 12.5 μg on P12, omega-6 PUFA fed mice

Compound | decrease in neovascularization (Tufts) compared to vehicle [1] | decrease in vessel loss (VO) compared to vehicle control [1] | neovascularization at P17 compared to saline controls [1] | protection from vaso-obliteration compared to saline-injected controls [1] | oxygen-induced vessel loss (VO) at P8 compared to saline-injected control [2] | TNF-α mRNA expression levels in inflammatory models (TNF-α) | pathologic neovascularization compared to saline injected controls [3, 4] | vaso-obliteration (vessel loss) compared to saline injected controls [3, 4] | retinal neovascularization compared to fellow saline-injected eye [3, 5] | vaso-obliteration compared to fellow saline-injected eye [3, 5]
CC/C=C\C[C@H](O)/C=C/C=C\C=C\C=C\[C@@H](O)[C@@H](O)C/C=C\CCC(=O)O [RvD1, 7S,8R,17S-trihydroxy-docosa-4Z,9E,11E,13Z,15E,19Z-hexaenoic acid] | 30% | 40% | less neovascularization | significant protection from vaso-obliteration | No apparent differences in vessel loss | significantly reduce TNF-α mRNA expression levels |  |  |  | 
etanercept |  |  |  |  |  |  | significantly protected; also recorded: significant reduction in pathologic neovascularization | significantly protected; also recorded: significant reduction in vaso-obliteration | suppressed retinal neovascularization; also recorded: significantly improved neovascularization | significantly reduce vaso-obliteration
CC/C=C\C[C@H](O)\C=C/C=C/C=C/[C@H](O)C/C=C\C/C=C\CCC(=O)O [NPD1, 10R,17S dihydroxy-docosa-4Z,7Z,11E,13E,15Z,19z-hexaneoic acid] | 30% | 40% | less neovascularization | significant protection from vaso-obliteration | No apparent differences in vessel loss; also recorded: no protective action | significantly reduce TNF-α mRNA expression levels |  |  |  | 
CC[C@@H](O)/C=C/C=C\C[C@@H](O)/C=C/C=C/C=C\[C@@H](O)CCCC(=O)O [RvE1, 5S,12R,18R-trihydroxy-6Z,8E,10E,14Z,16E-eicosapentaenoic acid] | 30% | 40% | less neovascularization | significant protection from vaso-obliteration | No apparent differences in vessel loss; also recorded: no protective action | significantly reduce TNF-α mRNA expression levels |  |  |  | 
